Broadly, the solubility is the dissolved amount per volume that the medium holds.

≈ marks a conversion by molar mass, not a printed value. Where two headings read alike, the source gives them in different places.

For data set [1] the following is noted: prolonged AZT administration, or high doses of uridine (background); cited from earlier work.
Data set [2] can be described thus: Solubility in water at room temperature. The format is physicochemical.
Data set [3] has as its target uridine phosphorylase. As to conditions: *calculated from Niedzwicki, J. G. et al.; read-out: APP Ki (apparent inhibition constant); cited from earlier work.
For data set [4], the target named is uridine phosphorylase. As to the kind of experiment: Inhibition of uridine phosphorylase (mouse liver cytosol, uridine substrate). As to conditions: for Ki: uridine 1 mM, pH 8, 37° C., 30 min, Dixon plots, read-out: APP Ki (apparent inhibition constant); for uridine phosphorylase inhibition compared with uracil / acyclouridine counterpart or analogue: comparison in words from Table I. The format is biochemical. Here is the method:
The activity of the 5-benzyl barbiturates of this invention as inhibitors of uridine phosphorylase was measured essentially following the procedure of Naguib et al. (vol. 36, Biochem. Pharmac. pp. 2195-2201 (1987)), the disclosure of which is incorporated herein by reference. An abridged description of the protocol is described below.
Mouse livers for these experiments were obtained from Swiss Albino (CDl) mice (Charles River Laboratories, Boston, Mass.). The mice were killed by cervical dislocation, and the livers removed and washed with ice-cold normal saline (0.9%) before any further manipulation.
The saline solution was wiped off the organs with tissue paper, and the organs weighed and then cut into smaller pieces in ice-cold homogenization buffer (3:1, v/w) containing 20 mM potassium phosphate (pH 8), 1 mM EDTA, and 1 mM mercaptoethanol. The livers were then homogenized with a polytron homogenizer (Brinkman), and the homogenates centrifuged at 105,000 g for 1 hr at 4°. The supernatant fluids (cytosol) were collected and used as the enzyme source.
The assay mixture contained 20 mM potassium phosphate (pH 8), 1 mM EDTA, 1 mM mercaptoethanol, substrate (uridine, 9 mCi/mmol) and 40 μl of enzyme preparation in a final volume of 80 μl. Under these conditions the activity was linear with time and amount of enzyme. Apparent Ki values were estimated from Dixon plots (1/v vs[I]) of the data by a computer program with least squares fitting, using uridine (1 mM) and five different concentrations of the inhibitor within the range of 0.0625 μM and 1.0 μM.
Incubation was carried out at 37° C., for 30 min. The reaction was terminated by immersing the reaction tubes (1 ml Eppendorf tubes) in boiling water for 1 min. and then freezing the reaction tubes for at least 20 min. Proteins were removed by centrifugation, and 5 μl of the supernatant fluid spotted on silica gel TLC plates which had been prespotted with 5 μl of a standard mixture of 10 mM each uridine and uracil. The plates were then developed in a mixture of chloroform and methanol (90:10, v/v). Uridine and uracil were identified by UV quenching. (Rf values for uridine and uracil are 0.09 and 0.39, respectively.) Spots were then cut out and counted in 20 ml of Omnifluor-based scintillant.
Protein concentrations were determined by the method of Bradford, (Bradford, M. M., vol. 72, Analyt. Biochem. p. 248 (1976)) as described by the Bio-Rad Laboratories (Bio-Rad Laboratories, Bulletin 1069, Bio-Rad Laboratories, Richmond, Calif. (1979)), using bovine […] as a standard.

Data set [5] deals with human bone marrow progenitor cells (HBMP). As to conditions: Somadossi et al. 1988; cited from earlier work.
For data set [6] the following is noted: in water at room temperature; acyclouridines of the art (background); cited from earlier work.
The mark [7] stands for this setting: water, in water, at room temperature, read-out: SOL. (solubility).

For `Cc1cn([C@H]2C[C@H](N=[N+]=[N-])[C@@H](CO)O2)c(=O)[nH]c1=O` [AZT, 3'-azido-3'-deoxythymidine], in data set [1], the toxic side effects result is recorded as “suppression of bone marrow growth in the patient”.

In turn, `O=c1[nH]cc(Cc2ccccc2)c(=O)[nH]1` [BU] had a solubility in data set [2] (water) of at most 1000 µM. Besides, the Ki in data set [3] is 54 µM.

For the molecule “5-benzyloxybenzylacetyl-1-[(1-hydroxy-2-ethoxy)methyl] barbiturate [BBCAB]”, the “SOL. (solubility)” value in data set [2] (in water, at room temperature) is over 3000 µM. In addition, the Ki in data set [4] was found to be 2.6 µM.

On to `Nc1ccn([C@@H]2O[C@H](CO)[C@@H](O)[C@H]2O)c(=O)n1` [cytidine], for which, in data set [5], the “reversal of toxic effects of AZT” value is “to a lesser extent”.

With `O=c1ccn([C@@H]2O[C@H](CO)[C@@H](O)[C@H]2O)c(=O)[nH]1` [uridine], the “reversal of toxic effects of AZT” value in data set [5] is “can reverse the toxic effects of AZT in human bone marrow progenitor cells (HBMP)”. Besides, the toxic side effects entry in data set [1] was “toxic side effects, such as phlebitis and pyrogenic reactions”.

As for `O=c1[nH]c(=O)n(COCCO)cc1Cc1ccccc1` [BAU], the solubility in water entry in data set [6] is listed as “about 1 mM”. Further, the concentration in solution in data set [2] (water) (solubility) came to 1000 µM (≈ 276 µg/mL). Further, the Ki in data set [4] came to 3.2 µM.

As to `O=C1NC(=O)C(Cc2ccccc2)C(=O)N1` [BB, 5-benzyl barbiturate], the solubility in data set [2] (setting [7]) was over 3000 µM. Moreover, the Ki in data set [4] is 44 µM.

As to `O=c1[nH]c(=O)n(COC(CO)CO)cc1Cc1cccc(OCc2ccccc2)c1` [HM-BBAU], the solubility in water entry in data set [6] is “about 1 mM”.

Turning to `O=c1[nH]c(=O)n(COCCO)cc1Cc1cccc(OCc2ccccc2)c1` [BBAU, 5-benzyl-oxybenzyl-acyclouridine], the solubility in water result in data set [6] is reported as “about 1 mM”. In addition, in data set [2] (water), the solubility is at most 1000 µM. Moreover, the Ki in data set [4] worked out at 1.1 µM.

Consider `O=c1[nH]cc(Cc2cccc(OCc3ccccc3)c2)c(=O)[nH]1` [BBU, 5-benzyloxybenzyl uracil], for which the solubility in data set [2] (water) was at most 1000 µM.

`O=C1CC(=O)NC(=O)N1` [Barbiturate, barbituric acid]: the solubility in data set [2] (in water, at room temperature, read-out: SOL. (solubility)) was over 3000 µM. In data set [4], the Ki was about 1500 µM.

In the case of `O=C1NC(=O)C(Cc2cccc(OCc3ccccc3)c2)C(=O)N1` [BBB, 5-benzyloxybenzyl barbiturate], the solubility in data set [2] (setting [7]) is over 3000 µM. In addition, in data set [4], the “uridine phosphorylase inhibition compared with uracil / acyclouridine counterpart or analogue” value is recorded as “significantly stronger uridine phosphorylase inhibitor than BBU” and the Ki worked out at 3 µM.

As to `O=C1NC(=O)N(COCCO)C(=O)C1Cc1cccc(OCc2ccccc2)c1` (centres unmarked) [BBAB, 5-benzyloxybenzyl-1-[(1-hydroxy-2-ethoxy)methyl] barbiturate], the “water solubility compared with acyclouridines” value in data set [2] (in water, at room temperature) is reported as “significantly greater than that of the acyclouridines”. Further, the solubility in data set [2] (setting [7]) is at least 3000 µM. In addition, in data set [4], the “uridine phosphorylase inhibition compared with uracil / acyclouridine counterpart or analogue” value is “further improves inhibition” and the Ki worked out at 0.8 µM.

In the case of `COc1cccc(CC2C(=O)NC(=O)N(COCCOC(C)=O)C2=O)c1` (centres unmarked) [MBCAB, 5-Methoxybenzylacetyl acyclo barbiturate], in data set [2] (setting [7]), the solubility was over 3000 µM. The Ki in data set [4] amounted to 1.9 µM.

(Values after patent publication US5141943A, “5-benzyl barbiturate derivatives” (Brown University Research Foundation, priority 1990, dated 1992).)
